The text below walks through data of patent US8618289B2 (Ambit Biosciences Corporation, priority 2008, dated 2013).

Like-named read-outs stand apart in the source and are kept apart here.

In assay [1] the target is RAF kinases (Homo sapiens, UniProt P04049). Conditions: read-out: RAF1 Kd; RAF1.
Experimental: (§1) Competition binding assays used herein were developed, validated and performed as described in Fabian et al., Nature Biotechnology 2005, 23, 329-336. […] The liganded beads were blocked with excess biotin and washed with blocking buffer (SeaBlock (Pierce), 1% BSA, 0.05% Tween 20, 1 mM DTT) to remove unbound ligand and to reduce non-specific binding. […] Test compounds were prepared as 100× stocks in DMSO and rapidly diluted into the aqueous environment. DMSO was added to control assays lacking a test compound. Primary screen interactions were performed in polypropylene 384-well plates in a final volume of 34 μt, while Kd determinations were performed in polystyrene 96-well plates in a final volume of 135 pt. […] The kinase concentration in the eluates was measured by quantitative PCR. Each kinase was tested individually against each compound. Kds were determined using eleven serial threefold dilutions. A selectivity score, which is a quantitative measure of selectivity of a compound against a panel of enzymes, may be calculated for a compound by dividing the number of enzymes for which a compound meets a set criteria, (for example, a binding constant of 100 nM or less), by the total number of enzymes tested. […] (Note, for those compounds tested in a larger kinase panel, as indicated by an asterisk (*) next to the S35 score, the divisor is 321 (i.e. the larger panel contains 321 distinct kinases, excluding mutant variants.)).
In assay [2] the target is RAF kinases (Homo sapiens, UniProt P15056). Conditions: read-out: BRAF WT Kd; BRAF WT.
Experimental: as §1
Assay [3] addresses T1, RAF kinases (Homo sapiens, UniProt P15056, V600E). To be noted: read-out: BRAF V600E Kd; BRAF V600E.
Experimental: as §1
Assay [4] concerns 290 distinct kinases tested excluding mutant variants (321 in the larger panel). Conditions: no asterisk: panel of 290 distinct kinases.
Experimental: as §1
For assay [5], the system named is MEK1 phosphorylation in the A375 human melanoma cell line. Description: cells. To be noted: A-375, read-out: pMEK IC50.
The subject of another assay is A375 cells. Description: cells. To be noted: Homo sapiens, A-375, read-out: A375 Viability EC50.
Assay [6] concerns the target T1, RAF kinases. Description: biochemical.
Experimental: as §1

RAF kinases (Homo sapiens, UniProt P04049), sequence (P04049 whole entry): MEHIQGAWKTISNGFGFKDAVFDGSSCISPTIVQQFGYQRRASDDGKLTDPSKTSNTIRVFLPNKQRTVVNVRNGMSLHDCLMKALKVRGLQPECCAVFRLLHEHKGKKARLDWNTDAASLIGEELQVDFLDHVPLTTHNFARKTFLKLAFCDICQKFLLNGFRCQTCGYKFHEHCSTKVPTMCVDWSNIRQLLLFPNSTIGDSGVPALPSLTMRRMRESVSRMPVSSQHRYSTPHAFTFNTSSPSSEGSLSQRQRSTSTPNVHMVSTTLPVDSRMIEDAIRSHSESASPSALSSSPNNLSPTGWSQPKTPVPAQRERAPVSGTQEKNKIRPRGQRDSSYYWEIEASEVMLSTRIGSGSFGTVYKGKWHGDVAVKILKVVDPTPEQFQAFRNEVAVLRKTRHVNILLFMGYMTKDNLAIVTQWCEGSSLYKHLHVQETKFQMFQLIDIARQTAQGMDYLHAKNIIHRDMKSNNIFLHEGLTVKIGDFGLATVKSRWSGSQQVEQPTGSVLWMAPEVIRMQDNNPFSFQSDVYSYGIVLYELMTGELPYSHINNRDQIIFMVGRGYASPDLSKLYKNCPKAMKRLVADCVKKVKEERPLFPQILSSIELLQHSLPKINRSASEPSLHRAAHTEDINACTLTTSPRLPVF
T1 sequence (P15056 whole entry V600E): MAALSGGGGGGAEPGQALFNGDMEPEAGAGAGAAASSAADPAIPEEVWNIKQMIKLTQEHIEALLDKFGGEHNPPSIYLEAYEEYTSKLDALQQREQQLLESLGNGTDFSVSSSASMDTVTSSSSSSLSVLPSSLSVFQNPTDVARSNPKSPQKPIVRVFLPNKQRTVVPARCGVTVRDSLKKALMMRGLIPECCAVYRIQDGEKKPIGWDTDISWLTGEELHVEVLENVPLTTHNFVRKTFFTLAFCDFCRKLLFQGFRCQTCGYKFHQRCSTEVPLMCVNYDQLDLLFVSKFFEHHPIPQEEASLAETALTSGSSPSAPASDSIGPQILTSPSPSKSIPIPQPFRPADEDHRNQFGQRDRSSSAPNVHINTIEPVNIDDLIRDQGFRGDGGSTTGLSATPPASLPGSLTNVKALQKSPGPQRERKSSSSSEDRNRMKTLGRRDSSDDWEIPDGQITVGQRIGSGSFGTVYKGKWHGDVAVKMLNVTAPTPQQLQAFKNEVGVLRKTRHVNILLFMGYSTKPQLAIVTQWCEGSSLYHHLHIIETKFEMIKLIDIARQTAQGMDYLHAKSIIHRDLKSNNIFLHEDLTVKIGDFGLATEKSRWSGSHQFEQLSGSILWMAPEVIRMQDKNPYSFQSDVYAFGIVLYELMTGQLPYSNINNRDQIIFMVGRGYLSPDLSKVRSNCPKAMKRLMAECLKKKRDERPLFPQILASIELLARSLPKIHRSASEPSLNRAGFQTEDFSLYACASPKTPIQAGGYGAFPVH
RAF kinases (Homo sapiens, UniProt P15056), sequence (P15056 whole entry): as the sequence (P15056 whole entry V600E) above, with E600V counted along it

On to `CCc1cc(NC(=O)Nc2cccc(Oc3ncnc4cc(OC)c(OC)cc34)c2)n(-c2ccccc2)n1` [Ex 352, 1-(3-(6,7-dimethoxyquinazolin-4-yloxy)phenyl)-3-(3-ethyl-1-phenyl-1H-pyrazol-5-yl)urea], for which the Kd at RAF kinases [1], at RAF kinases [2] and on RAF kinases [3] was less than 250 nM each time. In addition, the S35 entry in assay [4] was “C (0.20 < C ≦ 0.40)”. Also, in assay [5], the IC50 is 500 to 1000 nM. Besides, the EC50 in the assay with A375 cells lay in the range of 250 to 500 nM.
On to `COc1cc2ncnc(Oc3cccc(NC(=O)Nc4cc(C(C)C)nn4-c4cccnc4)c3)c2cc1OC` [Ex 350, 1-(3-(6,7-dimethoxyquinazolin-4-yloxy)phenyl)-3-(3-isopropyl-1-(pyridin-3-yl)-1H-pyrazol-5-yl)urea], for which the Kd at RAF kinases [1], at RAF kinases [2] and on RAF kinases [3] was less than 250 nM in each case. Further, the S35 entry in assay [4] is on record as “D (D > 0.40)”. The IC50 in assay [5] lay within 250 to 500 nM. Besides, the EC50 in the assay on A375 cells lay within 250 to 500 nM.
On to `COc1cc2ncnc(Sc3cccc(NC(=O)Nc4cc(C5(C(F)(F)F)CC5)nn4-c4ccc(C)cc4)c3)c2cc1OC` [Ex 347, 1-(3-(6,7-dimethoxyquinazolin-4-ylthio)phenyl)-3-(1-p-tolyl-3-(1-(trifluoromethyl)cyclopropyl)-1H-pyrazol-5-yl)urea], for which the Kd is greater than 1000 nM on RAF kinases [1], greater than 1000 nM at RAF kinases [2] and 250 to 500 nM on RAF kinases [6]. For the same compound, the S35 result in assay [4] is reported as “D (D > 0.40)”. Besides, in assay [5], the IC50 was less than 250 nM.
`COc1cc2ncnc(Sc3cccc(NC(=O)Nc4cc(C5CC5)nn4-c4ccccc4)c3)c2cc1OC` [Ex 354, 1-(3-cyclopropyl-1-phenyl-1H-pyrazol-5-yl)-3-(3-(6,7-dimethoxyquinazolin-4-ylthio)phenyl)urea]: the Kd on RAF kinases [1], on RAF kinases [2] and on RAF kinases [3] was less than 250 nM in each case. For the same compound, in assay [4], the S35 entry is “C (0.20 < C ≦ 0.40)”. In addition, the IC50 in assay [5] was 250 to 500 nM. Further, the EC50 in the assay on A375 cells fell in the range of 250 to 500 nM.
Regarding `COc1cc2ncnc(Oc3cccc(NC(=O)Nc4cc(C(C)(F)F)nn4-c4cccnc4)c3)c2cc1OC` [Ex 311, 1-(3-(1,1-difluoroethyl)-1-(pyridin-3-yl)-1H-pyrazol-5-yl)-3-(3-(6,7-dimethoxyquinazolin-4-yloxy)phenyl)urea], the Kd at RAF kinases [1], on RAF kinases [2] and on RAF kinases [3] was less than 250 nM in each case. Also, the S35 result in assay [4] was “C (0.20 < C ≦ 0.40)”. Moreover, the IC50 in assay [5] fell in the range of 250 to 500 nM. Also, the EC50 in the assay with A375 cells fell in the range of 250 to 500 nM.
On to `COc1cc2ncnc(Sc3cccc(NC(=O)Nc4cc(C(C)(C)C)nn4-c4ccccn4)c3)c2cc1OC` [Ex 345, 1-(3-tert-butyl-1-(pyridin-2-yl)-1H-pyrazol-5-yl)-3-(3-(6,7-dimethoxyquinazolin-4-ylthio)phenyl)urea], for which the Kd at RAF kinases [1], on RAF kinases [2] and at RAF kinases [3] was greater than 1000 nM throughout. In assay [4], the S35 result is listed as “B (0.10 < B ≦ 0.20)”. In addition, the half-inhibitory concentration (IC50) in assay [5] is 500 to 1000 nM. The EC50 with A375 cells is greater than 1000 nM.
On to `COc1cc2ncnc(Oc3cccc(NC(=O)Nc4cc(C(C)(C)C)nn4-c4ccnc(C)c4)c3)c2cc1OC` [Ex 320, 1-(3-tert-butyl-1-(2-methylpyridin-4-yl)-1H-pyrazol-5-yl)-3-(3-(6,7-dimethoxyquinazolin-4-yloxy)phenyl)urea], for which the dissociation constant Kd was greater than 1000 nM at RAF kinases [1], greater than 1000 nM at RAF kinases [2] and less than 250 nM at RAF kinases [3]. Moreover, the S35 result in assay [4] is given as “D (D > 0.40)”. The IC50 in assay [5] is less than 250 nM.
Turning to `COc1cc2ncnc(Oc3cccc(NC(=O)Nc4cc(C(C)(C)C)nn4C4CCCCC4)c3)c2cc1OC` [Ex 330, 1-(3-tert-butyl-1-cyclohexyl-1H-pyrazol-5-yl)-3-(3-(6,7-dimethoxyquinazolin-4-yloxy)phenyl)urea], the equilibrium dissociation constant (Kd) is greater than 1000 nM on RAF kinases [1], greater than 1000 nM on RAF kinases [2] and less than 250 nM at RAF kinases [3]. Also, the S35 entry in assay [4] is given as “C (0.20 < C ≦ 0.40)”. For the same compound, the IC50 in assay [5] is greater than 1000 nM. The EC50 with A375 cells was greater than 1000 nM.
